According to US20170066712A1, “NOVEL MOLECULES THAT SELECTIVELY INHIBIT HISTONE DEACETYLASE 6 RELATIVE TO HISTONE DEACETYLASE” (The Trustees of Columbia University in the City of New York, priority 2011, published 2017):

How the values were obtained:
acetylated alpha-tubulin = assay: Accumulation of acetylated alpha-tubulin in LNCaP cells (blot); format: cell-based, human; settings: for identified as HDAC6-selective inhibitor: on the basis of accumulation of acetylated tubulin without accumulation of acetylated histones
From the text: (§1) FIG. 2. Blot showing accumulation of acetylated alpha-tubulin and acetylated histone H3 in LNCaP cells cultured with compound 6. GADPH used as loading control.
(§2) Recombinant HDAC1 and HDAC6 are used to evaluate the selective inhibitory potency of each compound. Cell based assays: Normal cells (Human Foreskin Fibroblast cells), LNCaP (human prostate cancer cells), MCF-7 (human breast cancer cells, A549 (human adenocarcinoma of lung cells) and ARP-1 (human multiple myeloma cells) are used in these assays. Cells were cultured for up to 72 hr without and with the potential HDAC6-selective inhibitor. SAHA was used as a control. Cell number and cell viability were determined by enumeration. Proteins were extracted from cells and assayed for accumulation of acetylated tubulin and acetylated histones. All methods are described in Namdar et al., PNAS, 2010, 107:20003-8. In vivo animal studies: Potential HDAC6 inhibitor compounds are further assayed by administration to mice for up to 5 days with daily injections. Animals are sacrificed and tissues are analyzed for accumulation of acetylated tubulin and acetylated histones.

LNCaP cells [1] = assay: Cell growth assay in LNCaP cells; format: cell-based, human; settings: FIG. 3
Procedure: FIG. 3. Cell growth assay data in LNCaP cells with compound 6.
as §2

acetylated histone H3 = assay: Accumulation of acetylated histone H3 in LNCaP cells (blot); format: cell-based, human; settings: FIG. 2
From the text: as §1, §2

LNCaP cells [2] = assay: Cell viability assay in LNCaP cells; format: cell-based
Procedure: FIG. 4. Cell viability assay data in LNCaP cells with compound 6.
as §2

HDAC6 = target: T1, HDAC6 (Homo sapiens, UniProt Q9UBN7); assay: Recombinant HDAC1 and HDAC6 selective inhibitory potency; format: biochemical
T1 sequence (Q9UBN7 1-1215): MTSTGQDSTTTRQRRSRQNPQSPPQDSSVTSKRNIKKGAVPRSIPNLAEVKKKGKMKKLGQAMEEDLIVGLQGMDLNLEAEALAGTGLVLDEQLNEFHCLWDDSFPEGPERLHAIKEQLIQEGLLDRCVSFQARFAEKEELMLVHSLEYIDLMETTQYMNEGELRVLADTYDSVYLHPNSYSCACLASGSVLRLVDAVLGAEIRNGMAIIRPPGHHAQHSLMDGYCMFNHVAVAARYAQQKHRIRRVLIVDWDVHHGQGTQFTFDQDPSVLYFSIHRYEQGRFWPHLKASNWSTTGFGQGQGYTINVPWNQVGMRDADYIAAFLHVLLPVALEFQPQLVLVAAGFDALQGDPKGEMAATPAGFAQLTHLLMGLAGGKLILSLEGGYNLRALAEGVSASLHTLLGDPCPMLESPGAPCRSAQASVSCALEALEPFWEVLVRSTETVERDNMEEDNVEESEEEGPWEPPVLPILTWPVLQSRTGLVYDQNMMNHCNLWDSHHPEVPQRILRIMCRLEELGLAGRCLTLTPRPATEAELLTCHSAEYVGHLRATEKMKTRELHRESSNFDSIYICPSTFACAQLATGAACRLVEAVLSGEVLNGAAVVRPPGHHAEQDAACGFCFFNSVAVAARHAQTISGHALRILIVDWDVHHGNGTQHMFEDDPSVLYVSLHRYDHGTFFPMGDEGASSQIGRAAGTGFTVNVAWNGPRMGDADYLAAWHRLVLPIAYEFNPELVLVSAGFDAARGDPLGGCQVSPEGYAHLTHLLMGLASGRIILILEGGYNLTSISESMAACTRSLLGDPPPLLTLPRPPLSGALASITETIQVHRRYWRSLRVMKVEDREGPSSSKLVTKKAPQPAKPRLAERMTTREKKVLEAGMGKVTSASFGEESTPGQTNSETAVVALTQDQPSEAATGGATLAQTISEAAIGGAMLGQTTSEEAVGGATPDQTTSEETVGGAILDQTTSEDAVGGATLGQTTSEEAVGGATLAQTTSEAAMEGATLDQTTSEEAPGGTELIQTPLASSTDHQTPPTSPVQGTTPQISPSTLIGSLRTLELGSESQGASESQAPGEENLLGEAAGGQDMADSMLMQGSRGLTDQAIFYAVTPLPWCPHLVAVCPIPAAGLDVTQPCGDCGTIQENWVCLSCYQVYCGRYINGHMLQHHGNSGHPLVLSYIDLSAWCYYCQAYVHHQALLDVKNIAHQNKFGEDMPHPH
Procedure: as §2

known human HDACs = settings: background statement; cited from earlier work
cell motility = settings: Haggarty et al. (6); cited from earlier work
[3] = target: T2, C-terminal catalytic domain of HDAC6 (Homo sapiens, UniProt Q9UBN7); settings: Haggarty et al. (6); cited from earlier work
T2 sequence (Q9UBN7 1-1215): T1 sequence (Q9UBN7 1-1215)

microtubules = settings: Haggarty et al. (6); cited from earlier work

HDAC inhibitor selectivity for HDAC6 relative to HDAC1 (HDAC6) | SMILES | also measured
selective for HDAC6 relative to HDAC1 | O=C(NO)c1ccc(CC(=O)N(CCO)c2ccccc2)cc1 [Compound 6, N-hydroxy-4-(2-((2-hydroxyethyl)(phenyl)amino)-2-oxoethyl) benzamide] | levels of tubulin acetylation (acetylated alpha-tubulin; LNCaP cells, FIG. 2): significant levels of tubulin acylation were present; levels of tubulin acetylation reached in the absence of histone acetylation, compared with tubacin (acetylated alpha-tubulin; in the absence of histone acetylation): greater than selective levels with tubacin; identified as HDAC6-selective inhibitor (acetylated alpha-tubulin): HDAC6-selective inhibitors; cell number (LNCaP cells [1]): inhibits cell number; induction of H3 acetylation (acetylated histone H3): without induction of H3 acetylation; cell viability (LNCaP cells [2]; FIG. 4): does not decrease cell viability; death of LNCaP cells (LNCaP cells [2]; concentrations as high as 32 μM): no detectable death of LNCaP cells
selective for HDAC6 relative to HDAC1 | O=C(NO)c1ccc(CC(=O)N(CCO)c2cccc3cccnc23)cc1 [Compound 14, N-hydroxy-4-(2-((2-hydroxyethyl)(quinolin-8-yl)amino)-2-oxoethyl) benzamide] | identified as HDAC6-selective inhibitor (acetylated alpha-tubulin): HDAC6-selective inhibitors
selective for HDAC6 relative to HDAC1 | O=C(NO)c1ccc(NCC(=O)N(CCO)c2ccccc2)cc1 [Compound 27] | 
selective for HDAC6 relative to HDAC1 | O=C(NO)c1ccc(C(=O)N(CCO)c2ccccc2)cc1 [Compound 33] | 
selective for HDAC6 relative to HDAC1 | O=C(Cc1ccc(C(=O)N(CCO)c2ccccc2)cc1)NO [Compound 34] | 
selective for HDAC6 relative to HDAC1 | O=C(NO)c1cccc(CC(=O)N(CCO)c2ccccc2)c1 [Compound 79, N-hydroxy-3-(2-((2-hydroxyethyl)(phenyl)amino)-2-oxoethyl) benzamide] | 

Second part, the compound before the results:

SMILES | HDAC inhibitor selectivity for HDAC6 relative to HDAC1 (HDAC6) | also measured
O=C(/C=C/C(=O)Nc1ccc(CC(=O)N(CCO)c2ccccc2)cc1)NO [Compound 21] | selective for HDAC6 relative to HDAC1 | 
O=C(NO)Nc1ccc(CC(=O)N(CCO)c2ccccc2)cc1 [Compound 24] | selective for HDAC6 relative to HDAC1 | 
O=C(NO)C(=O)Nc1ccc(CC(=O)N(CCO)c2ccccc2)cc1 [Compound 26] | selective for HDAC6 relative to HDAC1 | 
O=C(CN(CCO)c1ccccc1)Nc1ccc(C(=O)NO)cc1 [Compound 30] | selective for HDAC6 relative to HDAC1 | 
O=C(CC(=O)Nc1ccc(CC(=O)N(CCO)c2ccccc2)cc1)NO [Compound 31] | selective for HDAC6 relative to HDAC1 | 
O=C(CN(CCO)c1ccccc1)Oc1ccc(C(=O)NO)cc1 [Compound 32] | selective for HDAC6 relative to HDAC1 | 
O=C(CCc1ccc(C(=O)N(CCO)c2ccccc2)cc1)NO [Compound 35] | selective for HDAC6 relative to HDAC1 | 
O=C(CCc1ccc(CC(=O)N(CCO)c2ccccc2)cc1)NO [Compound 36] | selective for HDAC6 relative to HDAC1 | 
O=C(NO)c1cccc2c1ccn2CC(=O)N(CCO)c1ccccc1 [Compound 37] | selective for HDAC6 relative to HDAC1 | 
O=C(NO)c1cccc2c1ncn2CC(=O)N(CCO)c1ccccc1 [Compound 43] | selective for HDAC6 relative to HDAC1 | 
O=C(CCCCCCC(=O)Nc1ccccc1)NO [SAHA, suberoylanilide hydroxamic acid, reference compound] |  | selectivity of inhibitory activity among known human HDACs (known human HDACs): not selective among the known human HDACs; death of LNCaP cells (LNCaP cells [2]; SAHA control): kills LNCaP cells
O=C(CCCCCCC(=O)Nc1ccc([C@H]2O[C@@H](CSc3nc(-c4ccccc4)c(-c4ccccc4)o3)C[C@@H](c3ccc(CO)cc3)O2)cc1)NO [tubacin] |  | cell motility (cell motility): decreased cell motility; inhibition of C-terminal catalytic domain of HDAC6 (α-tubulin deacetylation) [3]: can be inhibited; stability of microtubules (microtubules): did not affect the stability of microtubules
